Paper PMC12276035, “Novel Para‐Phenylenediamine‐Based Derivatives as Receptor Tyrosine Kinase‐like Orphan Receptor 1 (ROR1) Inhibitors: An In Vitro Preliminary Characterization” (Chemmedchem, 2025)

Columns and labels:
[1] = Plasma protein binding, rapid equilibrium dialysis; type: in vitro ADME; details: 37 °C, read-out: drug bound to plasma proteins
From the text: Plasma protein binding plays a crucial role in drug distribution and biological activity. After absorption into systemic circulation, drug molecules may bind to plasma proteins, and the bound drug cannot cross biological membranes, rendering it unavailable to exert a pharmacological effect. Only the free drug, unbound to plasma proteins, is pharmacologically active.
A Rapid Equilibrium Dialysis Plate (Pierce™ RED, Thermo Scientific) was used to determine the percentage of compound binding to plasma proteins. Potassium phosphate buffer was added to each white well, and plasma/compound (1 μM) mixture was added to the red wells. The plate was sealed and incubated at 37 °C on an orbital shaker at 300 rpm for 4 h. Afterward, 50 μL of post‐dialysis samples from the buffer and plasma chambers were transferred into separate microcentrifuge tubes. An equal volume of plasma was added to the buffer sample, while the plasma sample received an equivalent volume of buffer. Precooled IS was added to the assay plate to quench the reaction. Compounds were quantified by LC‐MS/MS. The percentage of free and bound compound was calculated using the following equations: % free = (concentration in buffer chamber/concentration in plasma chamber) × 100, and % bound = 100 − % free.^[ [48] ^] All experiments were performed in duplicate. Propranolol was used as positive control.

ROR1 = target: T1, ROR1 (Homo sapiens, UniProt Q01973); assay: Cellular Thermal Shift Assay (CETSA); type: cell-based; details: JeKo‐1, 40 μM, 2 h, 45–58 °C
T1 construct: endogenous in cells; host or cells: JeKo-1
Protocol: To further ascertain the binding between 17 and ROR1, we performed CETSA, a cell‐based test allowing us to carry out both qualitative and quantitative analyses of the direct interaction of a drug candidate to a target protein inside a cell.^[ [34] ^] CETSA assay was performed on JeKo‐1 cell line incubated with 17 for 2 h. After the treatment, ROR1 levels were evaluated by western blotting analysis. […] These findings provide strong evidence that the inhibitor effectively engages with ROR1 in cells, further supporting its mechanism of action (Figure 5 ). Ponatinib was used as a positive control (Figure S40, Supporting Information).
Figure 5 CETSA identifies ROR1 protein in the binding with 17 in JeKo‐1 cells. A) CETSA western blots and B) corresponding quantitative analysis of band intensity. […] Densitometry‐based quantification of western blotting signals was calculated by first normalizing to α‐tubulin levels in individual samples. […]
The CETSA is particularly suitable for identifying the interaction between ligands and their protein targets. […] The change in the thermal stability of the target protein is measured by the amount of residual soluble protein at different temperatures, comparing treated samples with control samples.^[ [32] ^] […] The amount of the soluble target protein was assessed by western blotting analysis.

[2] = tested on: ROR1 pathways in JeKo‐1 cells; assay: Western blotting of ROR1 pathway; type: cell-based, human; details: western blot
From the text: This time‐dependent reduction in P‐ROR1 is particularly significant, as it represents the upstream event that drives the observed proapoptotic downstream effects. […] Indeed, activation of ROR1 initiates the nonclassical Wnt (PI3K/AKT/mTOR) pathway and upregulates the phosphorylation level of AKT, which contributes to the survival and proliferation of cancer cells.^[ [25] ^]
Figure 6 Molecular effects of 17 on ROR1 pathways in JeKo‐1 cells. For each western blotting analysis, three independent experiments were performed, and the SD is expressed by error bars. The relative fold change versus untreated cells, set as 1, is shown in the graph. *, **, and *** denote respectively p < 0.05, p < 0.01, and p < 0.001 versus Ctrl.
JeKo‐1 cells (2.5 × 10^6 cells/well) were seeded in a T‐75 flask, treated with compound 17 (10 μM) for different times (4, 8, and 24 h). After treatments, cells were washed twice with PBS and detached with a scraper, centrifuged at 655 g × 10 min at 4 °C. Full proteins were extracted by lysis buffer (20 mM Tris‐HCl pH 7.5, 150 mM NaCl, 1 mM Na2EDTA, 1 mM EGTA, 2% NP‐40, 1% sodium deoxycholate, 1× protease and phosphatase inhibitor cocktail) for 30 min. Then, cell lysates were centrifuged at 4850 g for 20 min at 4 °C. 60 μg of total proteins were run on 8% SDS‐PAGE and transferred to nitrocellulose membranes using a minigel apparatus (Bio‐Rad Laboratories, Hercules, CA, USA). Blots were blocked in phosphate‐buffered saline, containing Tween‐20 0.1% and 5% BSA for 1 h at room temperature and incubated overnight with specific primary antibodies at 4 °C with slight agitation. α‐Tubulin was used as the loading control. […] Antigen‐antibody complexes were detected by enhanced chemiluminescence (ECL kit, Amersham, Germany). […]

T1 sequence (Q01973 30-937): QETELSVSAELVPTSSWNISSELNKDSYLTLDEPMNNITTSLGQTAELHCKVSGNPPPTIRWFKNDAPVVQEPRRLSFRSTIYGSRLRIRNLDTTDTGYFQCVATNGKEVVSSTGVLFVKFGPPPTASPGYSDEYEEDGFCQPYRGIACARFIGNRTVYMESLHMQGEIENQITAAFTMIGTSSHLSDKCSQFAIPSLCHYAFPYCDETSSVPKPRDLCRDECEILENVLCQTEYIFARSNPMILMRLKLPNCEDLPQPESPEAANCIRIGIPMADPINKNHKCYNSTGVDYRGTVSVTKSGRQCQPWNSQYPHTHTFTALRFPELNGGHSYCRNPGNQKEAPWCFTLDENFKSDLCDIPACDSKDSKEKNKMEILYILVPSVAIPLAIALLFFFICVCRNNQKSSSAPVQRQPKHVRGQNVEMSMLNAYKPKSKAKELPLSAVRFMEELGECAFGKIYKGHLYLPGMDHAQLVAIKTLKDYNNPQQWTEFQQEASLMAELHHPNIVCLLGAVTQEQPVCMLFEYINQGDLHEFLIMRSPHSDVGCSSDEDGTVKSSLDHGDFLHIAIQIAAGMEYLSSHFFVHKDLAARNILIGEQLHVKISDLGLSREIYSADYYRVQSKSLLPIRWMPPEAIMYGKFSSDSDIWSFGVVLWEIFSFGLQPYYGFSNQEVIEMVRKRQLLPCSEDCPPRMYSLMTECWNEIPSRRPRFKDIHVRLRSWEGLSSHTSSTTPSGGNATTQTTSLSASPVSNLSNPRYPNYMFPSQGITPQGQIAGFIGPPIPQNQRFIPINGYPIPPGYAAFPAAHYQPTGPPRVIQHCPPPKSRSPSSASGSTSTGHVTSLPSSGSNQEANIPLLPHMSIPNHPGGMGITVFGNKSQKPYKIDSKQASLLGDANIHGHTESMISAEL

Compound: O=C(NCc1ccc(-c2ccccc2)cc1)Nc1ccc(NCC2CCNCC2)cc1C(F)(F)F [Compound 17]
- fraction unbound at 4 h, 1 μM [1]: 0.01
- ROR1 thermal stabilization (ROR1): strong stabilization
- AKT phosphorylation ([2]; JeKo‐1, 10 μM, 4, 8 and 24 h): significant decrease
- ROR1 phosphorylation ([2]; JeKo‐1, 10 μM, 4, 8 and 24 h): marked reduction
- total ROR1 protein levels ([2]; JeKo‐1, 10 μM, 24 h): increase
